{
  "source": "patent US6083959A",
  "about": "“Quinoline derivatives, processes for their preparation and their use as medicaments” (Fujisawa Pharmaceutical Co., Ltd., priority 1996, dated 2000)",
  "note": "Where a name gives a salt, the structure may show the parent alone.",
  "data": [
    {"target": "T1, Bradykinin Receptor (Cavia porcellus, UniProt O70526)", "T1 construct": "The ileum was removed and homogenized in buffer; from tissue; host or cells: guinea pig (male Hartley strain) ileum, crude membrane", "T1 sequence (O70526 1-372)": "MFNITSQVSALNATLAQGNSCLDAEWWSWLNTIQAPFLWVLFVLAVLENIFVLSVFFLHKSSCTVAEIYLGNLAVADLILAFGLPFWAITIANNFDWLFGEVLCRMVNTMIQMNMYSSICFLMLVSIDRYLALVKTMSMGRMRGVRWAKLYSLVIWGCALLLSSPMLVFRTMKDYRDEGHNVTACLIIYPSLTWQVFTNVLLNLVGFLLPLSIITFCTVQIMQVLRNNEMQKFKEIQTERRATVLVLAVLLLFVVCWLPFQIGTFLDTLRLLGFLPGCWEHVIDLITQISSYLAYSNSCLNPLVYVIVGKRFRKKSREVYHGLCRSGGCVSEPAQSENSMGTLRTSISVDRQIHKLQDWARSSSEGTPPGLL", "assay": "^3 H-Bradykinin Receptor Binding (crude guinea pig ileum membrane)", "settings": "^3 H-Bradykinin 0.06 nM, room temperature, 60 minutes, read-out: Inhibition of ^3 H-Bradykinin binding IC50", "protocol": "^3 H-Bradykinin Receptor Binding\n(a) Crude Ileum Membrane Preparation\nMale Hartly strain guinea pigs were sacrificed by decapitation. The ileum was removed and homogenized in buffer (50 mM 2-[[tris(hydroxymethyl)methyl]amino]-1-ethanesulfonic acid (TES), 1 mM 1,10-phenanthroline pH 6.8). The homogenate was centrifuged (1000×g,20 minutes) to remove tissue clumps and the supernatant was centrifuges (100,000×g, 60 minutes) to yield a pellet. The pellet was resuspended in buffer (50 mM TES, 1 mM 1,10-phenanthroline, 140 mg/l bacitracin, 1 mM dithiothreiol, 0.1% bovine serum albumin pH 6.8) and homogenized with a glass-teflon homogenizer to yield suspension which was referred to as crude membrane suspension. The obtained membrane suspension was stored at -80° C. until use.\n(b) ^3 H-Bradykinin Binding to the Membrane\nThe frozen crude membrane suspension was thawed. In binding assays, ^3 H-Bradykinin (0.06 nM) and drug were incubated with 50 μl of the membrane suspension at room temperature for 60 minutes in a final volume of 250 μl. Separation of receptor-bound from free ^3 H-Bradykinin is achieved by immediate filtration under vacuum and washed three times with 5 ml of ice-cold buffer (50 mM Tris-HCl pH 7.5). Non-specific binding was defined as binding in the presence of 0.1 μM Bradykinin. The radioactivity retained on rinsed filters was determined by a liquid-scintillation counter.", "units": {"IC50": "nM"}, "values": [
      {"smiles": "Cc1cc(-n2ccnc2)c2cccc(OCc3c(Cl)ccc(N(C)C(=O)CNC(=O)C=Cc4ccc(C(=O)NCc5ccccn5)cc4)c3Cl)c2n1", "note": "[2-(3) (trihydrochloride), 8-[2,6-Dichloro-3-[N-methyl-N-[4-[N-(2-pyridylmethyl)carbamoyl]cinnamoylglycyl]amino]benzyloxy]-4-(imidazol-1-yl)-2-methylquinoline]", "IC50": 4.5},
      {"smiles": "Cc1cc(-n2ccnc2)c2cccc(OCc3c(Cl)ccc(N(C)C(=O)CNC(=O)Nc4cccc(C(=O)Nc5ccncc5)c4)c3Cl)c2n1", "note": "[3 (trihydrochloride), 8-[2,6-dichloro-3-[N-methyl-N-[N'-[3-[N-(4-pyridyl)carbamoyl]phenyl]ureidoacetyl]amino]benzyloxy]-4-(imidazol-1-yl)-2-methylquinoline]", "IC50": 6.6},
      {"smiles": "Cc1cc(-n2cccn2)c2cccc(OCc3c(Cl)ccc(N(C)C(=O)CNC(=O)C=Cc4ccc(C(=O)N(C)C)cc4)c3Cl)c2n1", "note": "[11-(4) (dihydrochloride), 8-[2,6-Dichloro-3-[N-methyl-N-[4-(dimethylcarbamoyl)cinnamoylglycyl]amino]benzyloxy]-2-methyl-4-(pyrazol-1-yl)quinoline]", "IC50": 3.3},
      {"smiles": "Cc1cc(-n2cncn2)c2cccc(OCc3c(Cl)ccc(N(C)C(=O)CNC(=O)C=Cc4ccc(C(=O)N(C)C)cc4)c3Cl)c2n1", "note": "[12 (dihydrochloride), 8-[2,6-Dichloro-3-[N-methyl-N-[4-(dimethylcarbamoyl)cinnamoylglycyl]amino]benzyloxy]-2-methyl-4-(1,2,4-triazol-1-yl)quinoline]", "IC50": 9.1},
      {"smiles": "CCOC(=O)c1ccc(C=CC(=O)NCC(=O)N(C)c2ccc(Cl)c(COc3cccc4c(-n5ccnc5)cc(C)nc34)c2Cl)cc1", "note": "[17-(1), 8-[2,6-Dichloro-3-[N-(4-ethoxycarbonylcinnamoylglycyl)-N-methylamino]benzyloxy]-4-(imidazol-1-yl)-2-methylquinoline]", "IC50": 3.9}
    ]}
  ]
}
